The test has as its target T1, rat CB-1 receptor (Rattus norvegicus, UniProt P20272).
T1 construct: The tissue obtained from the brain of SD rats was homogenized; from tissue; host or cells: SD rat brain (membrane pellet of homogenate)
Put plainly: rat CB-1 receptor binding protocol with [3H]CP-55940 on SD rat brain tissue. The conditions noted are these: [3H]CP-55940 displacement, SD rat brain homogenate; for IC50: read-out: IC50 (binding affinity for CB1 receptor).

Where two headings read alike, the source gives them in different places.

T1 sequence (P20272 whole entry): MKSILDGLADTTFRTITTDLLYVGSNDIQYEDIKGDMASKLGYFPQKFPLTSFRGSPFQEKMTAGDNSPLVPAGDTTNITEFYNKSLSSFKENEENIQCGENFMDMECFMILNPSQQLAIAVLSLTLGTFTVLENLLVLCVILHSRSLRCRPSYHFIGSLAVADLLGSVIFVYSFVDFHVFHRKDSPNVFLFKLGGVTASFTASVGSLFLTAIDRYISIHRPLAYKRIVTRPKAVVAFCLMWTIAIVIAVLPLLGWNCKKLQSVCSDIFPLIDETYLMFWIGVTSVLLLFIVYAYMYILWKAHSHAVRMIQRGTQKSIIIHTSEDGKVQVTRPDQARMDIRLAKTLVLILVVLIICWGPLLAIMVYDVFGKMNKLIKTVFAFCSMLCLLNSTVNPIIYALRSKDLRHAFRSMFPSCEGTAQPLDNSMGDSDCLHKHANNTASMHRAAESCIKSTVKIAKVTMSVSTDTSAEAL
Experimental: The tissue obtained from the brain of SD rats was homogenized with a Dounce homogenate system in TME (50 mM Tris, 3 mM MgCl2 and 1 mM EDTA, pH 7.4) at 4° C., and the homogenate was centrifuged at 48,000 g for 30 min. at 4° C. The pellet was resuspended in 5 ml of TME and the suspension was divided into aliquots and stored at −70° C. until its use in the following assay.
The tissue concentrations were determined by Bradford protein analysis, and 148 μl of brain tissue of the required concentration was added to the plate. The plate was covered and placed in a 30° C. incubator for 60 min, and then transformed on GF/B filtermat pretreated in polyethylenimine (PEI) using a cell harvester. Each filter was washed five times and dried at 60° C. for 1 hr. Then, the degree of radioactivity retained by the filter was measured using Wallac Microbeta™ (PerkinElmer Life Sciences, Inc., Massachusetts, U.S.A.) and the activity of the compound for inhibiting CB1 receptor was determined therefrom.

Usually IC50 stands for the point on the concentration scale where inhibition reaches its midpoint. For the molecule `CCC(CC)C(=O)NC(=O)c1nn(-c2ccc(Cl)cc2Cl)c(-c2ccc(Cl)cc2)c1C` [Example 1, 5-(4-Chlorophenyl)-1-(2,4-dichlorophenyl)-N-(2-ethylbutanoyl)-4-methyl-1H-pyrazole-3-carboxamide], the half-inhibitory concentration (IC50) (30° C., 60 min) amounted to 24.8 nM.

Regarding `Cc1c(C(=O)NC(=O)C2CC2)nn(-c2ccc(Cl)cc2Cl)c1-c1ccc(Cl)cc1` [Example 2, 5-(4-Chlorophenyl)-N-(cyclopropanecarbonyl)-1-(2,4-dichlorophenyl)-4-methyl-1H-pyrazole-3-carboxamide], the IC50 (30° C., 60 min) is 124 nM.

In the case of `Cc1c(C(=O)NC(=O)C2CCC2)nn(-c2ccc(Cl)cc2Cl)c1-c1ccc(Cl)cc1` [Example 3, 5-(4-Chlorophenyl)-N-(cyclobutanecarbonyl)-1-(2,4-dichlorophenyl)-4-methyl-1H-pyrazole-3-carboxamide], the IC50 (30° C., 60 min) is 127 nM. The same measure, in the same setting: the value for `Cc1c(C(=O)NC(=O)C2CCCC2)nn(-c2ccc(Cl)cc2Cl)c1-c1ccc(Cl)cc1` [Example 4, 5-(4-Chlorophenyl)-N-(cyclopentanecarbonyl)-1-(2,4-dichlorophenyl)-4-methyl-1H-pyrazole-3-carboxamide] was 67.2 nM; that for `Cc1c(C(=O)NC(=O)C2CCCCC2)nn(-c2ccc(Cl)cc2Cl)c1-c1ccc(Cl)cc1` [Example 5, 5-(4-Chlorophenyl)-N-(cyclohexanecarbonyl)-1-(2,4-dichlorophenyl)-4-methyl-1H-pyrazole-3-carboxamide] was 30.4 nM; that for `CC(=O)NC(=O)c1nn(-c2ccc(Cl)cc2Cl)c(-c2ccc(Cl)cc2)c1C` [Example 6, N-Acetyl-5-(4-chlorophenyl)-1-(2,4-dichlorophenyl)-4-methyl-1H-pyrazole-3-carboxamide] was 383 nM. Still for that read-out and setting: in the case of `CCCC(=O)NC(=O)c1nn(-c2ccc(Cl)cc2Cl)c(-c2ccc(Cl)cc2)c1C` [Example 7, N-Butyryl-5-(4-chlorophenyl)-1-(2,4-dichlorophenyl)-4-methyl-1H-pyrazole-3-carboxamide] it was 43.7 nM.

On to `CCCCCC(=O)NC(=O)c1nn(-c2ccc(Cl)cc2Cl)c(-c2ccc(Cl)cc2)c1C` [Example 8, 5-(4-Chlorophenyl)-1-(2,4-dichlorophenyl)-N-hexanoyl-4-methyl-1H-pyrazole-3-carboxamide], for which the IC50 (30° C., 60 min) came to 33.5 nM. The same measure, in the same setting: in the case of `Cc1c(C(=O)NC(=O)C(C)C)nn(-c2ccc(Cl)cc2Cl)c1-c1ccc(Cl)cc1` [Example 9, 5-(4-Chlorophenyl)-1-(2,4-dichlorophenyl)-N-isobutyryl-4-methyl-1H-pyrazole-3-carboxamide] it was 161 nM. The same measure, in the same setting: in the case of `Cc1c(C(=O)NC(=O)C(C)(C)C)nn(-c2ccc(Cl)cc2Cl)c1-c1ccc(Cl)cc1` [Example 10, 5-(4-Chlorophenyl)-1-(2,4-dichlorophenyl)-4-methyl-N-pivaloyl-1H-pyrazole-3-carboxamide] it was 32.7 nM; in that of `CCC(C)(C)C(=O)NC(=O)c1nn(-c2ccc(Cl)cc2Cl)c(-c2ccc(Cl)cc2)c1C` [Example 11, 5-(4-Chlorophenyl)-1-(2,4-dichlorophenyl)-N-(2,2-dimethylbutanoyl)-4-methyl-1H-pyrazole-3-carboxamide], 21.2 nM. Still for that read-out and setting: in the case of `Cc1c(C(=O)NC(=O)CC(C)(C)C)nn(-c2ccc(Cl)cc2Cl)c1-c1ccc(Cl)cc1` [Example 12, 5-(4-Chlorophenyl)-1-(2,4-dichlorophenyl)-N-(3,3-dimethylbutanoyl)-4-methyl-1H-pyrazole-3-carboxamide] it was 53.4 nM. For `CCCC(CCC)C(=O)NC(=O)c1nn(-c2ccc(Cl)cc2Cl)c(-c2ccc(Cl)cc2)c1C` [Example 13, 5-(4-Chlorophenyl)-1-(2,4-dichlorophenyl)-4-methyl-N-(2-propylpentanoyl)-1H-pyrazole-3-carboxamide], the IC50 (30° C., 60 min) worked out at 26.9 nM. Same read-out and setting: the value for `CCCCC(CC)C(=O)NC(=O)c1nn(-c2ccc(Cl)cc2Cl)c(-c2ccc(Cl)cc2)c1C` (stereo not shown) [Example 14, 5-(4-Chlorophenyl)-1-(2,4-dichlorophenyl)-N-(2-ethylhexanoyl)-4-methyl-1H-pyrazole-3-carboxamide] was 43.1 nM. `CCCCCCNC(=O)NC(=O)c1nn(-c2ccc(Cl)cc2Cl)c(-c2ccc(Cl)cc2)c1C` [Example 15, 5-(4-Chlorophenyl)-1-(2,4-dichlorophenyl)-N-(hexylcarbamoyl)-4-methyl-1H-pyrazole-3-carboxamide]: the IC50 (30° C., 60 min) is 138 nM. On the same count and under the same terms, in the case of `Cc1c(C(=O)NC(=O)NC2CCCCC2)nn(-c2ccc(Cl)cc2Cl)c1-c1ccc(Cl)cc1` [Example 16, 5-(4-Chlorophenyl)-N-(cyclohexylcarbamoyl)-1-(2,4-dichlorophenyl)-4-methyl-1H-pyrazole-3-carboxamide] it was 390 nM.

Turning to `Cc1c(C(=O)NC(=O)NC2CCCCCC2)nn(-c2ccc(Cl)cc2Cl)c1-c1ccc(Cl)cc1` [Example 17, 5-(4-Chlorophenyl)-N-(cycloheptylcarbamoyl)-1-(2,4-dichlorophenyl)-4-methyl-1H-pyrazole-3-carboxamide], for the setting “30° C., 60 min”, the IC50 came to 750 nM. Turning to `Cc1c(C(=O)NC(=O)NCC2CCCCC2)nn(-c2ccc(Cl)cc2Cl)c1-c1ccc(Cl)cc1` [Example 18, 5-(4-Chlorophenyl)-N-(cyclohexylmethylcarbamoyl)-1-(2,4-dichlorophenyl)-4-methyl-1H-pyrazole-3-carboxamide], under “30° C., 60 min”, the “IC50 (binding affinity for CB1 receptor)” value was “insoluble”. `Cc1c(C(=O)NC(=O)NC(C)C)nn(-c2ccc(Cl)cc2Cl)c1-c1ccc(Cl)cc1` [Example 19, 5-(4-Chlorophenyl)-1-(2,4-dichlorophenyl)-N-(isopropylcarbamoyl)-4-methyl-1H-pyrazole-3-carboxamide]: the IC50 (30° C., 60 min) came out at 253 nM. Turning to `Cc1c(C(=O)NC(=O)NC(C)(C)C)nn(-c2ccc(Cl)cc2Cl)c1-c1ccc(Cl)cc1` [Example 20, N-(tert-butylcarbamoyl)-5-(4-chlorophenyl)-1-(2,4-dichlorophenyl)-4-methyl-1H-pyrazole-3-carboxamide], for the setting “30° C., 60 min”, the “IC50 (binding affinity for CB1 receptor)” value is “insoluble”. Regarding `Cc1c(C(=O)NC(=O)Nc2ccccc2)nn(-c2ccc(Cl)cc2Cl)c1-c1ccc(Cl)cc1` [Example 21, 5-(4-Chlorophenyl)-1-(2,4-dichlorophenyl)-4-methyl-N-(phenylcarbamoyl)-1H-pyrazole-3-carboxamide], the IC50 is above 10000 nM. Turning to `Cc1c(C(=O)NC(=O)NCc2ccccc2)nn(-c2ccc(Cl)cc2Cl)c1-c1ccc(Cl)cc1` [Example 22, N-(Benzylcarbamoyl)-5-(4-chlorophenyl)-1-(2,4-dichlorophenyl)-4-methyl-1H-pyrazole-3-carboxamide], where the note is “30° C., 60 min”, the IC50 stood at 146 nM.

For the molecule `Cc1c(C(=O)NC(=O)OCc2ccccc2)nn(-c2ccc(Cl)cc2Cl)c1-c1ccc(Cl)cc1` [Example 23, Benzyl 5-(4-chlorophenyl)-1-(2,4-dichlorophenyl)-4-methyl-1H-pyrazole-3-carbonylcarbamate], the IC50 (30° C., 60 min) worked out at 17.8 nM. Same read-out and setting: the value for `CCCCOC(=O)NC(=O)c1nn(-c2ccc(Cl)cc2Cl)c(-c2ccc(Cl)cc2)c1C` [Example 24, Butyl 5-(4-chlorophenyl)-1-(2,4-dichlorophenyl)-4-methyl-1H-pyrazole-3-carbonylcarbamate] was 99.7 nM; that for `Cc1c(C(=O)NC(=O)OC(C)(C)C)nn(-c2ccc(Cl)cc2Cl)c1-c1ccc(Cl)cc1` [Example 25, tert-Butyl 5-(4-chlorophenyl)-1-(2,4-dichlorophenyl)-4-methyl-1H-pyrazole-3-carbonylcarbamate] was 82.5 nM.

For the molecule `Cc1c(C(=O)NC(=O)OCC(C)(C)C)nn(-c2ccc(Cl)cc2Cl)c1-c1ccc(Cl)cc1` [Example 26, Neopentyl 5-(4-chlorophenyl)-1-(2,4-dichlorophenyl)-4-methyl-1H-pyrazole-3-carbonylcarbamate], the IC50 (30° C., 60 min) was 363 nM.

Regarding `CCC(CC)C(=O)NC(=O)c1nc(-c2ccc(Cl)cc2Cl)n(-c2ccc(Cl)cc2)c1C` [Example 27, 1-(4-Chlorophenyl)-2-(2,4-dichlorophenyl)-N-(2-ethylbutanoyl)-5-methyl-1H-imidazole-4-carboxamide], for the setting “30° C., 60 min”, the IC50 worked out at 20 nM. Regarding `Cc1c(C(=O)NC(=O)C2CCCCC2)nc(-c2ccc(Cl)cc2Cl)n1-c1ccc(Cl)cc1` [Example 28, 1-(4-Chlorophenyl)-N-(cyclohexanecarbonyl)-2-(2,4-dichlorophenyl)-5-methyl-1H-imidazole-4-carboxamide], the IC50 (30° C., 60 min) came to 88 nM.

In the case of `Cc1c(C(=O)NC(=O)C(C)(C)C)nc(-c2ccc(Cl)cc2Cl)n1-c1ccc(Cl)cc1` [Example 29, 1-(4-Chlorophenyl)-2-(2,4-dichlorophenyl)-5-methyl-N-pivaloyl-1H-imidazole-4-carboxamide], for the setting “30° C., 60 min”, the 50% inhibitory concentration (IC50) came to 40 nM. Same read-out and setting: the value for `CCC(C)(C)C(=O)NC(=O)c1nc(-c2ccc(Cl)cc2Cl)n(-c2ccc(Cl)cc2)c1C` [Example 30, 1-(4-Chlorophenyl)-2-(2,4-dichlorophenyl)-N-(2,2-dimethylbutanoyl)-5-methyl-1H-imidazole-4-carboxamide] was 39.9 nM; that for `CCCC(CCC)C(=O)NC(=O)c1nc(-c2ccc(Cl)cc2Cl)n(-c2ccc(Cl)cc2)c1C` [Example 31, 1-(4-Chlorophenyl)-2-(2,4-dichlorophenyl)-5-methyl-N-(2-propylpentanoyl)-1H-imidazole-4-carboxamide] was 75.4 nM. On the same count and under the same terms, in the case of `CCCCC(CC)C(=O)NC(=O)c1nc(-c2ccc(Cl)cc2Cl)n(-c2ccc(Cl)cc2)c1C` (stereo not shown) [Example 32, 1-(4-Chlorophenyl)-2-(2,4-dichlorophenyl)-N-(2-ethylhexanoyl)-5-methyl-1H-imidazole-4-carboxamide] it was 46.6 nM. On the same count and under the same terms, the value for `CCCCCCCC(=O)NCNC(=O)c1nn(-c2ccc(Cl)cc2Cl)c(-c2ccc(Cl)cc2)c1C` [Example 33, 5-(4-Chlorophenyl)-1-(2,4-dichlorophenyl)-4-methyl-N-(octanamidomethyl)-1H-pyrazole-3-carboxamide] was 1180 nM; that for `Cc1c(C(=O)NCNC(=O)C2CCC2)nn(-c2ccc(Cl)cc2Cl)c1-c1ccc(Cl)cc1` [Example 34, 5-(4-Chlorophenyl)-N-(cyclobutanecarboxamidomethyl)-1-(2,4-dichlorophenyl)-4-methyl-1H-pyrazole-3-carboxamide] was 150 nM.

The values above are taken from patent US20080262066A1, “Azole Derivatives as Cannabinoid CB1 Receptor Antagonists” (Green Cross Corporation, priority 2007, published 2008).
